Assay results published in ChEMBL document CHEMBL1201862, “PubChem BioAssay data set” (2004).
Activity calls are given as the source filed them.

Tests used:
INS1 = assay: beta cell apoptosis inhibitors, cytokine rescue, dose response, luminescence, retest (AID 449756); format: functional, cell-based; settings: Rattus norvegicus;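 also: cell death triggered by IL-1 beta plus TNF-alpha plus IFN-gamma mixture; protective hits raise ATP signal compared with cytokine alone wells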
Beta-galactosidase = Beta-galactosidase (Escherichia coli, UniProt Q8VNN2); assay: Dose response counterscreen for EBI2 assay utilizing the enzyme, b-galactosidase.; format: functional
[1] = human group III sPLA2 inhibitors, dose response, biochemical, QFRET, IC50 (AID 743457);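 also: green fluorescence rise as the enzyme cleaves BODIPY PC-A2 in liposomes; potency for inhibition of the enzyme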
[2] = molecular target: T1, Apoptotic protease-activating factor 1 (Homo sapiens, UniProt O14727); format: functional
T1 sequence (O14727 whole entry): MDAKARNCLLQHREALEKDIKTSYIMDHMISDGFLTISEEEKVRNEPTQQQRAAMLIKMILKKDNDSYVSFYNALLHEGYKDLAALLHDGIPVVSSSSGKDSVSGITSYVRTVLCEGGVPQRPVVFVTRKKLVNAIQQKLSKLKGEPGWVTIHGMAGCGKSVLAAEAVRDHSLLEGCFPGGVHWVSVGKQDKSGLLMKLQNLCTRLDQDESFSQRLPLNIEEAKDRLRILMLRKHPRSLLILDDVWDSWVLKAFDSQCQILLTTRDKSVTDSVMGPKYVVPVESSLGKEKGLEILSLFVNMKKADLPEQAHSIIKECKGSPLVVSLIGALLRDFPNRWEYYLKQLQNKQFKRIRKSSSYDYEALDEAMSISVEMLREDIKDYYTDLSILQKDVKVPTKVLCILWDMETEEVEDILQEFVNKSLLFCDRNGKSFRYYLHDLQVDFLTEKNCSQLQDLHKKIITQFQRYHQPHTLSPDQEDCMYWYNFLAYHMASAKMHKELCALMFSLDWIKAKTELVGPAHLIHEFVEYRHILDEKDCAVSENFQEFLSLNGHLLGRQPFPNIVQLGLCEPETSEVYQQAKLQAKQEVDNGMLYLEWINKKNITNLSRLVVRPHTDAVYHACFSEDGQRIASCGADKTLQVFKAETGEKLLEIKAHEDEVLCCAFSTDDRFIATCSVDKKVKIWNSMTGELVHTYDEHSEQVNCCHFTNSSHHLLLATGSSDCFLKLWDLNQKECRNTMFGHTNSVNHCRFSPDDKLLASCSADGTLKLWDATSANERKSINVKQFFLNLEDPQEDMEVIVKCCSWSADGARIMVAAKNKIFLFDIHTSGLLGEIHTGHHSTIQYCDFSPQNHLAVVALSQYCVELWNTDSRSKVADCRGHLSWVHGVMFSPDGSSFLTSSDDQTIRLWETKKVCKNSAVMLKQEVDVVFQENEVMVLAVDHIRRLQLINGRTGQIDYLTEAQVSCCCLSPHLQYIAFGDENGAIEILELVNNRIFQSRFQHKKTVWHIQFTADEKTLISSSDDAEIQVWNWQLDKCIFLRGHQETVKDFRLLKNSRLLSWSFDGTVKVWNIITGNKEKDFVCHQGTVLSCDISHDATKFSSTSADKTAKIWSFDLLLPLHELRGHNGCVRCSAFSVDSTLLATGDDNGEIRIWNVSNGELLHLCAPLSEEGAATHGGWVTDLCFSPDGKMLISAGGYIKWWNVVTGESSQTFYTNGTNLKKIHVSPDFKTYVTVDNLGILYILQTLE

[3] = molecular target: T2, Lysine-specific demethylase 4C (Homo sapiens, UniProt Q9H3R0); assay: GASC-1 (JMJD2C) histone demethylase inhibitors, dose response, biochemical, DELFIA europium, cherry-picked samples (AID 488835); format: functional
T2 sequence (Q9H3R0 whole entry): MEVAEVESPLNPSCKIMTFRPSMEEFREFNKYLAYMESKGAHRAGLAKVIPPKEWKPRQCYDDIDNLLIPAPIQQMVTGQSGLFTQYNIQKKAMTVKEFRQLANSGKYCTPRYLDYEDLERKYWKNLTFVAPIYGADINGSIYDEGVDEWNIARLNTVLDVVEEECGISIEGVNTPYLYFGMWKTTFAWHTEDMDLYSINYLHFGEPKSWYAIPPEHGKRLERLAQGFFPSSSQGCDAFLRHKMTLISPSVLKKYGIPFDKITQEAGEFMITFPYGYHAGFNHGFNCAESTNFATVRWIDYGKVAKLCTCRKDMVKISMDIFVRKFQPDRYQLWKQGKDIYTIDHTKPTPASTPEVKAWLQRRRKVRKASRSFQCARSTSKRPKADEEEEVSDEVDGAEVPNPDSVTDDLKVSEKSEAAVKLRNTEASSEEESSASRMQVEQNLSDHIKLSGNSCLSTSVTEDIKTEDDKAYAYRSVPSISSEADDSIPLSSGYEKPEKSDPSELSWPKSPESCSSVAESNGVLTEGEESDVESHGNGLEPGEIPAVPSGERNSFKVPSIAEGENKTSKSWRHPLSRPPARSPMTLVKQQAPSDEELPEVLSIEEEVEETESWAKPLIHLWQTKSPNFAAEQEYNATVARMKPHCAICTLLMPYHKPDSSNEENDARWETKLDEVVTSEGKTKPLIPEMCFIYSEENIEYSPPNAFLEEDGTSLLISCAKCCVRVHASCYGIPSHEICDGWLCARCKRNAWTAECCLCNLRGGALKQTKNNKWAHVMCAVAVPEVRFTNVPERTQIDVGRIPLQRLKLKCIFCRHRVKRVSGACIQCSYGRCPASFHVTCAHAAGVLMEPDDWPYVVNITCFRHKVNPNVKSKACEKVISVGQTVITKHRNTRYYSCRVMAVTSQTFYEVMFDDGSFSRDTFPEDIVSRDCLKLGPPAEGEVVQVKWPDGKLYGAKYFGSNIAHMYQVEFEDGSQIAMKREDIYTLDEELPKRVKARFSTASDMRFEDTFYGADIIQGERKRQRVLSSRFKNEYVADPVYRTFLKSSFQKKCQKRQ

[4] = molecular target: T3, Probable nicotinate-nucleotide adenylyltransferase (Staphylococcus aureus (strain N315), UniProt P65502); format: functional, Staphylococcus aureus subsp. aureus N315; settings: read-out: IC50_Mean;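 as to IC50 Mean: confirmatory dose-response retesting of NadD inhibitor hits first found in an ultra-high-throughput screen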
[5] = molecular target: T4, Sentrin-specific protease 8 (Homo sapiens, UniProt Q96LD8); format: functional
T4 sequence (Q96LD8 whole entry): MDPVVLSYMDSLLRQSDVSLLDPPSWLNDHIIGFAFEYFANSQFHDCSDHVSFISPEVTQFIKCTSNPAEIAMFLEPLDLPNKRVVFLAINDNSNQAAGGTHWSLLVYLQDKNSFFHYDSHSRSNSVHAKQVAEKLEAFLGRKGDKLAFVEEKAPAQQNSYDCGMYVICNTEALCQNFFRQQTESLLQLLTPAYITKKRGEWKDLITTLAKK

[6] = molecular target: T4, Sentrin-specific protease 8; format: functional; remark: listed apart in the source
[7] = molecular target: T3, Probable nicotinate-nucleotide adenylyltransferase; format: functional, Staphylococcus aureus subsp. aureus N315
Vero [8] = assay: Vero cell cytotoxicity, cytotoxicity control for flavivirus capping enzyme inhibitors (AID 588742); format: functional; settings: Chlorocebus sabaeus
[9] = Artemis endonuclease inhibitor potency, dose response, biochemical, fluorescence intensity (AID 720701); format: functional;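 also: Artemis endonuclease enzyme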
NS3 = NS3 (Hepatitis C virus, UniProt A3EZJ3); assay: PubChem AID 2173; design: species or system Hepacivirus hominis
[10] = C. albicans growth with fluconazole, confirmation, fluorescence, retest (AID 2467); format: functional, cell-based
Vero [11] = assay: cells; format: functional; settings: Chlorocebus sabaeus
[12] = NIH-3T3 fibroblast cytotoxicity, dose response, cytotoxicity control, cell-based, fluorescence, Alamar Blue, secondary assay (AID 2327); format: functional;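 also: NIH-3T3 mouse fibroblasts cultured with fluconazole at 8 µg/mL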
Vero [13] = assay: cells; format: functional, cell-based; settings: Chlorocebus sabaeus
Kallikrein-7 = Kallikrein-7 (Homo sapiens, UniProt P49862); assay: Fluorescence Intensity-based biochemical primary high throughput dose response assay to identify activators of kallikrein-7 (K7) zymogen.
[14] = molecular target: COUP transcription factor 2 (Homo sapiens, UniProt P24468); assay: Luminescence-based cell-based high throughput dose response assay to identify inhibitors of COUP-TFII (NR2F2).; format: functional;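 also: HEK293 cells transiently cotransfected with COUP-TFII expression vector and reporter; luciferase reporter luminescence driven by COUP-TFII from the pX2-168 reporter plasmid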
[15] = molecular target: Oxysterols receptor LXR-beta (Homo sapiens, UniProt P55055); format: functional, cell-based;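 also: agonist activity at LXR measured by a cell-based luminescence readout across a dose range, run as a counterscreen for daf-12 agonists; HEK293 cells with Gal4-LXR fusion and GAL4-driven luciferase reporter; potency for activation of Gal4-LXR reporter so compounds are agonists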
[16] = inhibitors of PGC1a acetylation in cells, dose response, cell-based, cherry-picked samples (AID 720514); format: functional;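 also: potency may reflect raised or lowered acetylation signal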
Paired box protein Pax-8 = Paired box protein Pax-8 (Homo sapiens, UniProt Q06710); assay: inhibitors of PAX8-driven TPO luciferase reporter, dose response, RMG-I cells, cherry-pick (AID 687027); format: functional, cell-based;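 also: luciferase reporter driven by Pax8 target thyroperoxidase promoter measured by SteadyGlo luminescence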
[17] = non-specific cell cytotoxicity, dose response, cytotoxicity control for PAX8 inhibitor project, plate reader, dry powder samples (AID 743021); format: functional, cell-based
HEK293 = assay: HEK293T cell cytotoxicity, dose response, cytotoxicity control, ATP luminescence, cherry-pick samples (AID 687005); format: functional, cell-based; settings: Homo sapiens;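 also: cells exposed to compound for 48 hours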
[18] = HEK293 Cytotoxicity Assay Measured in Cell-Based System Using Plate Reader - 7071-01_Inhibitor_Dose_CherryPick_Activity_Set2.; format: functional
[19] = IOSE-T80 ovarian epithelial cell cytotoxicity, dose response, cytotoxicity control for PAX8 inhibitor project, plate reader, dry powder samples (AID 743045); format: functional, cell-based
[20] = cytotoxicity in OVCAR8 ovarian cancer cells, dose response, PAX8 project, cell-based, plate reader, dry powder samples (AID 743197); format: functional; settings: OVCAR-8
[21] = NIH:OVCAR-3 ovarian cancer cell cytotoxicity, dose response, PAX8 inhibitor project, plate reader, dry powder samples (AID 743044); format: functional, cell-based
[22] = IGROV1 ovarian cancer cell cytotoxicity, dose response, PAX8 inhibitor project, plate reader, dry powder samples (AID 743043); format: functional, cell-based; settings: IGROV-1
[23] = A2780 ovarian cancer cell cytotoxicity, dose response, cytotoxicity control, plate reader, dry powder samples (AID 743046); format: functional, cell-based
[24] = Dose-response inhibition of insulin secretion in a rat insulinoma line at 5 mM glucose (AID 1117331); format: functional, cell-based; settings: INS-1E
[25] = Glucagon-like peptide 1 release potency, NCI-H716 cell line, dose-response, half-maximal inhibitory concentration (AID 1117344); format: functional, cell-based
[26] = half-maximal inhibitory concentration for glucagon-like peptide-1 release, STC-1 cell line, dose-response (AID 1117345); format: functional, cell-based

Sequence of COUP transcription factor 2 (P24468 whole entry, the tested form may be a part): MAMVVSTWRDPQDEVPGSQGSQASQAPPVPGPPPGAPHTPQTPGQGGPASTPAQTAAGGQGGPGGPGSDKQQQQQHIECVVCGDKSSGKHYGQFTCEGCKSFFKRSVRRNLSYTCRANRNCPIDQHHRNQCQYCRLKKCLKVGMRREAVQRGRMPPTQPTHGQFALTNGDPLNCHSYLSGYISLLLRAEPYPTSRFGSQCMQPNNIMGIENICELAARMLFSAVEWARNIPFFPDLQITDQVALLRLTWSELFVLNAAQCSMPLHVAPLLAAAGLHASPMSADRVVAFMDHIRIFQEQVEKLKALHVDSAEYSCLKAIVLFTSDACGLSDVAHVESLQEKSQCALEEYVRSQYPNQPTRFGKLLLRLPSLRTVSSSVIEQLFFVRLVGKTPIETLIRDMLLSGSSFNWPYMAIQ
T3 sequence (P65502 whole entry): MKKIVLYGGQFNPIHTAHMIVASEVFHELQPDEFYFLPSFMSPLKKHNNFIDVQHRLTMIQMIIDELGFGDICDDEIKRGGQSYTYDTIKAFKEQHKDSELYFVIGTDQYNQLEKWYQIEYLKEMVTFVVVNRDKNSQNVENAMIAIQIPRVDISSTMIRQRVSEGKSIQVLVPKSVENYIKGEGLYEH
Sequence of Beta-galactosidase (Q8VNN2 whole entry): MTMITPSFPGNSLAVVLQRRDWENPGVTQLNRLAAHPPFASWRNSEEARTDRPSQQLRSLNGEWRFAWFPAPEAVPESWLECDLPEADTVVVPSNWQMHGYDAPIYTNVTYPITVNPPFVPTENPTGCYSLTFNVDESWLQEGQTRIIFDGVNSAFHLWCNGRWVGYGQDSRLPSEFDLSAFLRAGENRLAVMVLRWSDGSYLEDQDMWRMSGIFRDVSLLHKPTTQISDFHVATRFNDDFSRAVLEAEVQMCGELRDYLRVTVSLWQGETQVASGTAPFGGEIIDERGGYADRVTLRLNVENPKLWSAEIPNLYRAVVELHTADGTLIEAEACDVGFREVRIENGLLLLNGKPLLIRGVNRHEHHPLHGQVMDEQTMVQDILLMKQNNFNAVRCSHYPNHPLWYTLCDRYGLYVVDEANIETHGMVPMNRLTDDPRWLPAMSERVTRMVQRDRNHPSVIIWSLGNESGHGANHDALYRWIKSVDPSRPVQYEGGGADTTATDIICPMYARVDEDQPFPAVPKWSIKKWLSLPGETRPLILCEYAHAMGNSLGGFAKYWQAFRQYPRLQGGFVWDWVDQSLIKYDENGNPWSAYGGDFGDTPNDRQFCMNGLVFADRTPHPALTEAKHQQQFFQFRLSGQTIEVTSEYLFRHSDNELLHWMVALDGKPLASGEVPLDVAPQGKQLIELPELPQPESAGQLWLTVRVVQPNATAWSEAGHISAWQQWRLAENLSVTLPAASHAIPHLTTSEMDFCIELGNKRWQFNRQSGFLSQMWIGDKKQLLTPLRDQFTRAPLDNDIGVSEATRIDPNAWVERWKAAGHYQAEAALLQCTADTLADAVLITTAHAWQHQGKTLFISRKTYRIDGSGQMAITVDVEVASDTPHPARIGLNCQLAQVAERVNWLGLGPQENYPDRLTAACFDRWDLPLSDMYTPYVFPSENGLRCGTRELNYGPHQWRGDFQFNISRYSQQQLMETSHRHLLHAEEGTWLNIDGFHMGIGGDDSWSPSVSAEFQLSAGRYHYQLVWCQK
Sequence of Paired box protein Pax-8 (Q06710 whole entry): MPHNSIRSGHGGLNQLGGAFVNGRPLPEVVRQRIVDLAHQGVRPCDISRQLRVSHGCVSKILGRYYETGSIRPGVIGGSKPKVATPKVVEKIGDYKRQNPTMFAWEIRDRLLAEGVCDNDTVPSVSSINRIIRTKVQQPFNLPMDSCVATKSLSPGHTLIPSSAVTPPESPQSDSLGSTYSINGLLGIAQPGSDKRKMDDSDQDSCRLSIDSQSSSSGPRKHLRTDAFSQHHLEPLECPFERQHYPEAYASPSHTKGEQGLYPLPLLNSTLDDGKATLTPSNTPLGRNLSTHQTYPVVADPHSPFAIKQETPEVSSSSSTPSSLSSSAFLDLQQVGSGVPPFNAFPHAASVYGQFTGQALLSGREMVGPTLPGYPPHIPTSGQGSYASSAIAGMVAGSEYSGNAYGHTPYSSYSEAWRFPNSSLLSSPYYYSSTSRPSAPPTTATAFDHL
Sequence of Kallikrein-7 (P49862 whole entry): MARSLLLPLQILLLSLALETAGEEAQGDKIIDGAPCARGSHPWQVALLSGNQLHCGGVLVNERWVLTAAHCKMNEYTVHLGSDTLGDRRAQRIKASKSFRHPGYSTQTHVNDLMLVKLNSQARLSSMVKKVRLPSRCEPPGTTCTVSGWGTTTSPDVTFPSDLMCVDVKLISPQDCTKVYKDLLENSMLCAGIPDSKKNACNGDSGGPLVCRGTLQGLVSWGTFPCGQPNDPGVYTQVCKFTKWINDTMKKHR
Sequence of Oxysterols receptor LXR-beta (P55055 whole entry, the tested form may be a part): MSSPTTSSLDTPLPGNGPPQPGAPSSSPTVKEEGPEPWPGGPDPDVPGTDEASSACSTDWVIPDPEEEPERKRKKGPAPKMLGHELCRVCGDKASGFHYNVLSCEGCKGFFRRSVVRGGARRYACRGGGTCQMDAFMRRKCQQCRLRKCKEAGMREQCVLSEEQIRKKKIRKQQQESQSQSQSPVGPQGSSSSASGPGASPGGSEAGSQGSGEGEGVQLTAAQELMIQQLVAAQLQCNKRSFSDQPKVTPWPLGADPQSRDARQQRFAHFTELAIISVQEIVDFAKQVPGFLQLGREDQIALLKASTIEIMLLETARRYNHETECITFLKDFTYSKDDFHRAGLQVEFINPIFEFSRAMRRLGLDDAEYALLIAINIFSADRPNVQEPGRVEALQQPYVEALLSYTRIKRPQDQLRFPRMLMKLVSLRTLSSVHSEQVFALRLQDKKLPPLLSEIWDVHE
Sequence of NS3 (A3EZJ3 whole entry): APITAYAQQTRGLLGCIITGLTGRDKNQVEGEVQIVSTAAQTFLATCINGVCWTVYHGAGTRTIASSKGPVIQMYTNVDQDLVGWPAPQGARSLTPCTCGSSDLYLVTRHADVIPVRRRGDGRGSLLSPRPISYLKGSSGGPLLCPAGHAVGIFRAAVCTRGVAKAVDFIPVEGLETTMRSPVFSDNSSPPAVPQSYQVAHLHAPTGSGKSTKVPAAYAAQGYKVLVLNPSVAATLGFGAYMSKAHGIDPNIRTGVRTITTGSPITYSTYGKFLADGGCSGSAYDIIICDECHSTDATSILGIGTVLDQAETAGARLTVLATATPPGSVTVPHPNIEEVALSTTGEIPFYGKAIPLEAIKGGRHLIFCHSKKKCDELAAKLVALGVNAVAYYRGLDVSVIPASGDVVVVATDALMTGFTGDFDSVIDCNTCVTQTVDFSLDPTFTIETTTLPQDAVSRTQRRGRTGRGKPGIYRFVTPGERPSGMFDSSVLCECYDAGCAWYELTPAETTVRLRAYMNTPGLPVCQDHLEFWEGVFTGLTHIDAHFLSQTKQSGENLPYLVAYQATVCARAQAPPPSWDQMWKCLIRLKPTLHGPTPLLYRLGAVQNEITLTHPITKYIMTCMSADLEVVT

Cc1cc(OCC(=O)N(C)Cc2ccccc2)ccc1Cl
AC50 (INS1): > 260 µM (inactive)
IC50 (Beta-galactosidase): > 80 µM (inactive)

O=C(CSCc1ccccc1)NNC(=S)Nc1cccc(Cl)c1Cl
IC50 [1]: > 122 µM (inactive)

COc1ccc(OCC(=O)N2CCN(C/C=C/c3ccccc3)CC2)cc1
IC50 (Beta-galactosidase): > 80 µM (inactive)

Cc1[nH][nH]c(=O)c1C(c1c(C)[nH][nH]c1=O)c1cn(Cc2cccc3ccccc23)c2ccccc12
IC50 [2]: 19.3 µM (active)
AC50 [3]: 11.4 µM (active)
IC50 [4]: 14.7 µM (active)
IC50 [5]: 3.36 µM (active)
IC50 [6]: 5.32 µM (active)
IC50 [7]: 6.89 µM (active)

Cc1n[nH]c(O)c1C(c1c(C)n[nH]c1O)c1cn(Cc2cccc3ccccc23)c2ccccc12
CC50 (Vero [8]): > 40 µM (active)
IC50 [9]: 12.5 µM (active)

CCCCOc1ccccc1C(=O)NNC(=S)NC(=O)c1ccccc1[N+](=O)[O-]
IC50 (NS3): 12.2 µM (not active)
EC50 [10]: > 38 µM (not active)
CC50 (Vero [11]): 15.8 µM (active)
EC50 [12]: > 150 µM (inactive)
IC50 (Vero [13]): > 12.5 µM (active)
IC50 [1]: 20.8 µM (inactive)

CSc1ccc(C2NC(=O)c3ccccc3N2)cc1 (configuration not stated)
EC50 (Kallikrein-7): > 69.5 µM (inactive)

COc1ccc(NC(=O)C2Cc3c(-c4ccc5c(c4)OCO5)ccnc3O2)cc1OC (configuration not stated)
IC50 [14]: 8.73 µM (active)

OC(c1ccccc1)c1nc(-c2cnc3ccccc3c2)cs1 (configuration not stated)
EC50 [15]: > 67.6 µM (inactive)

O=C(Nc1ccc(C(F)(F)F)cc1)N1C[C@@H]2N[C@H](C1)[C@@H]2c1ccc(-c2ccccc2)cc1
AC50 [16]: 9.06 µM (active)
AC50 (Paired box protein Pax-8): 8.62 µM (active)
AC50 [17]: 33.8 µM (active)

Cc1ccc(S(=O)(=O)N(C)C[C@@H]2Oc3ccc(NS(=O)(=O)c4ccc(Cl)cc4)cc3CC(=O)N([C@@H](C)CO)C[C@@H]2C)cc1
AC50 (HEK293): 28 µM (active)
AC50 [18]: 28 µM (active)

CC(C)CC#Cc1ccc2c(c1)O[C@@H](CN(C)Cc1ccncc1)[C@H](C)CN([C@H](C)CO)S2(=O)=O
AC50 [19]: 48.9 µM (active)
AC50 [20]: 32.6 µM (active)
AC50 (Paired box protein Pax-8): 4.41 µM (active)
AC50 [21]: 40.7 µM (active)

Fc1cccc(CN2C[C@@H]3N[C@H](C2)[C@@H]3c2ccc(-c3ccccc3)cc2)c1
AC50 [16]: 7.52 µM (active)
AC50 [20]: 39.9 µM (active)
AC50 [22]: 27.7 µM (active)
AC50 [23]: 15.1 µM (active)
AC50 [21]: 31 µM (active)

Cc1c(N)cccc1C(F)(F)F
IC50 [24]: > 33.3 µM (inactive)
IC50 [25]: > 40 µM (inactive)
IC50 [26]: > 40 µM (inactive)

CC/N=c1\scc(-c2ccc3c(c2)NC(=O)CO3)n1N=C1CCCC1
EC50 [10]: 2.31 µM (active)
IC50 [14]: 8.75 µM (active)
EC50 [12]: > 160 µM (inactive)

COc1cc(/C=N/NC(=O)c2c(C)nc3ccc(Cl)cn23)cc(OC)c1OC
EC50 (Kallikrein-7): 29 µM (inactive)
